Test results: the supplement of paper PMC10307832

Compound: COc1nc(N)nc2c1ncn2[C@@H]1O[C@H](CO)[C@@H](O)[C@@H]1O [Nelarabine] + CCNC(=O)c1noc(-c2cc(C(C)C)c(O)cc2O)c1-c1ccc(CN2CCOCC2)cc1 [Luminespib] (partner 0.01 µM)
Assay: relative viability (nuclei count vs DMSO), 5 days (fraction); higher = more cells survive
Settings: first compound 0.01 µM
In short: (§1)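 Dosing by pin tool came one day after lung cancer cell lines were seeded in 1536-well plates, using either one drug or a fixed anchor-drug dose plus five library-drug doses (not always all listed) in √10 steps. After 5 days, nuclei were counted on 4× images. Relative viability is treated-well nuclei count divided by vehicle-well nuclei count, and values are medians of duplicate plates.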

In order of falling relative viability:
1. HCC-44  1.33
2. LCLC-103H  1.26
3. HOP-62  1.19
4. NCI-H2170  1.17
5. LC-2-ad  1.1
6. 201T  1.09
7. COR-L23  0.973
8. A-427  0.96
9. EKVX  0.946
10. NCI-H322M  0.917
11. LCLC-97TM1  0.912
12. HCC-827  0.889
13. ChaGo-K-1  0.821
14. LXF-289  0.792
15. NCI-H2342  0.775
16. HARA  0.77
17. ABC-1  0.71
18. COR-L 105  0.701
19. NCI-H1563  0.527
20. NCI-H1623  0.467
21. NCI-H358  0.409
22. LOU-NH91  0.392
23. BEN  0.323
24. CAL-12T  0.32
25. HCC-15  0.304
26. LU99A  0.239
27. NCI-H23  0.226
28. NCI-H1650  0.195
29. SW 900  0.175
30. LK-2  0.161
31. EPLC-272H  0.137

Same assay, conditions: first compound 0.03162 µM

In order of rising relative viability:
1. BEN  0.131
2. HCC-15  0.158
3. SW 900  0.175
4. NCI-H1650  0.181
5. NCI-H23  0.201
6. LU99A  0.235
7. CAL-12T  0.315
8. ChaGo-K-1  0.361
9. LOU-NH91  0.45
10. EPLC-272H  0.483
11. NCI-H1623  0.574
12. NCI-H1563  0.58
13. LXF-289  0.655
14. HCC-827  0.68
15. LCLC-97TM1  0.688
16. ABC-1  0.705
17. NCI-H2342  0.707
18. HOP-62  0.736
19. EKVX  0.771
20. COR-L23  0.796
21. COR-L 105  0.822
22. HARA  0.84
23. NCI-H322M  0.84
24. H3255  0.889
25. LCLC-103H  0.905
26. A-427  0.982
27. NCI-H522  0.993
28. 201T  1.09
29. LC-2-ad  1.09
30. NCI-H2170  1.21
31. HCC-44  1.34

Same assay, conditions: first compound 0.1 µM

In order of rising relative viability:
1. SW 900  0.173
2. LK-2  0.178
3. NCI-H1650  0.225
4. NCI-H23  0.23
5. NCI-H358  0.28
6. LU99A  0.339
7. HCC-15  0.349
8. LOU-NH91  0.354
9. CAL-12T  0.367
10. BEN  0.371
11. EPLC-272H  0.446
12. ABC-1  0.535
13. COR-L23  0.576
14. NCI-H1563  0.584
15. NCI-H1623  0.588
16. NCI-H2170  0.602
17. ChaGo-K-1  0.637
18. HCC-827  0.644
19. NCI-H2342  0.657
20. LXF-289  0.659
21. A-427  0.721
22. NCI-H322M  0.79
23. COR-L 105  0.792
24. EKVX  0.809
25. LCLC-97TM1  0.856
26. LC-2-ad  0.932
27. HCC-44  0.965
28. LCLC-103H  0.969
29. H3255  1
30. HARA  1
31. HOP-62  1
32. 201T  1.03
33. NCI-H522  1.25

Same assay, conditions: first compound 0.3162 µM

In order of falling relative viability:
1. HCC-44  1.1
2. HOP-62  1.1
3. LC-2-ad  1.08
4. 201T  1.07
5. LCLC-103H  1.06
6. A-427  0.964
7. NCI-H522  0.96
8. COR-L23  0.906
9. HARA  0.863
10. H3255  0.853
11. NCI-H322M  0.834
12. LXF-289  0.832
13. EKVX  0.796
14. NCI-H2342  0.753
15. NCI-H2170  0.746
16. LCLC-97TM1  0.713
17. CAL-12T  0.699
18. COR-L 105  0.669
19. ChaGo-K-1  0.659
20. NCI-H1563  0.549
21. HCC-827  0.511
22. BEN  0.488
23. NCI-H1623  0.483
24. LOU-NH91  0.346
25. ABC-1  0.309
26. NCI-H358  0.308
27. HCC-15  0.295
28. LU99A  0.282
29. EPLC-272H  0.259
30. NCI-H1650  0.234
31. NCI-H23  0.225
32. SW 900  0.179
33. LK-2  0.146

Same assay, conditions: first compound 1 µM

In order of rising relative viability:
1. LK-2  0.173
2. SW 900  0.179
3. NCI-H1650  0.204
4. NCI-H23  0.21
5. LU99A  0.279
6. EPLC-272H  0.301
7. NCI-H358  0.309
8. BEN  0.331
9. LOU-NH91  0.356
10. HCC-827  0.385
11. CAL-12T  0.394
12. HCC-15  0.409
13. NCI-H2170  0.465
14. ChaGo-K-1  0.562
15. NCI-H1563  0.564
16. LXF-289  0.578
17. NCI-H1623  0.621
18. H3255  0.737
19. HARA  0.749
20. NCI-H2342  0.765
21. LCLC-97TM1  0.78
22. ABC-1  0.859
23. COR-L23  0.869
24. COR-L 105  0.904
25. EKVX  0.915
26. LC-2-ad  0.916
27. HOP-62  0.961
28. NCI-H322M  0.967
29. A-427  0.983
30. LCLC-103H  0.99
31. 201T  1.04
32. HCC-44  1.24
33. NCI-H522  1.29

Compound: COc1nc(N)nc2c1ncn2[C@@H]1O[C@H](CO)[C@@H](O)[C@@H]1O [Nelarabine] + C[C@]1(O)C[C@@H](c2nc(-c3ccc4ccc(-c5ccccc5)nc4c3)c3c(N)nccn32)C1 [Linsitinib] (partner 1 µM)
Assay: as above
Settings: first compound 0.01 µM
In short: as §1

In order of falling relative viability:
1. EPLC-272H  1.35
2. H3255  1.31
3. HARA  1.29
4. BEN  1.27
5. LK-2  1.24
6. NCI-H1563  1.23
7. Calu-6  1.22
8. LCLC-103H  1.22
9. HCC-366  1.21
10. NCI-H1299  1.19
11. 201T  1.18
12. COR-L23  1.12
13. EKVX  1.08
14. HCC-15  1.06
15. NCI-H322M  1.05
16. NCI-H1703  1.05
17. A-427  1.03
18. LOU-NH91  1.02
19. LXF-289  1.01
20. EBC-1  0.99
21. ABC-1  0.955
22. HOP-62  0.933
23. HCC-827  0.922
24. LC-2-ad  0.919
25. NCI-H358  0.891
26. COR-L 105  0.863
27. CAL-12T  0.857
28. IA-LM  0.847
29. NCI-H23  0.749
30. A549  0.714
31. HCC-44  0.712
32. HCC-78  0.627
33. LU99A  0.534
34. LCLC-97TM1  0.222

Same assay, conditions: first compound 0.03162 µM

In order of rising relative viability:
1. LCLC-97TM1  0.163
2. HCC-366  0.427
3. LU99A  0.461
4. HCC-78  0.506
5. NCI-H358  0.613
6. A549  0.622
7. NCI-H1703  0.66
8. NCI-H23  0.671
9. HCC-44  0.678
10. HARA  0.814
11. BEN  0.818
12. HCC-827  0.826
13. LC-2-ad  0.832
14. IA-LM  0.838
15. HCC-15  0.841
16. EKVX  0.849
17. CAL-12T  0.931
18. LXF-289  0.935
19. 201T  0.942
20. LOU-NH91  0.953
21. HOP-62  0.967
22. COR-L23  0.996
23. NCI-H1299  1.02
24. COR-L 105  1.03
25. Calu-6  1.07
26. H3255  1.09
27. EPLC-272H  1.11
28. LCLC-103H  1.11
29. NCI-H322M  1.11
30. A-427  1.12
31. EBC-1  1.13
32. ABC-1  1.19
33. NCI-H1563  1.22

Same assay, conditions: first compound 0.1 µM

In order of falling relative viability:
1. EPLC-272H  1.18
2. NCI-H1563  1.18
3. H3255  1.12
4. A-427  1.11
5. HOP-62  1.11
6. LCLC-103H  1.08
7. 201T  1.07
8. NCI-H1299  1.05
9. BEN  1
10. COR-L23  1
11. LXF-289  0.969
12. COR-L 105  0.95
13. EBC-1  0.929
14. HCC-15  0.904
15. Calu-6  0.897
16. HCC-827  0.877
17. LOU-NH91  0.865
18. EKVX  0.851
19. ABC-1  0.83
20. LC-2-ad  0.823
21. NCI-H322M  0.816
22. CAL-12T  0.809
23. HARA  0.771
24. NCI-H358  0.694
25. IA-LM  0.68
26. HCC-44  0.678
27. LU99A  0.669
28. NCI-H1703  0.666
29. NCI-H23  0.613
30. LK-2  0.608
31. A549  0.585
32. HCC-366  0.551
33. LCLC-97TM1  0.242

Same assay, conditions: first compound 0.3162 µM

In order of rising relative viability:
1. LCLC-97TM1  0.225
2. A549  0.523
3. HCC-78  0.536
4. NCI-H1703  0.541
5. LU99A  0.581
6. NCI-H23  0.623
7. HCC-44  0.657
8. LK-2  0.691
9. IA-LM  0.737
10. LC-2-ad  0.758
11. HCC-827  0.772
12. CAL-12T  0.778
13. HCC-366  0.785
14. ABC-1  0.809
15. NCI-H358  0.865
16. HCC-15  0.87
17. HOP-62  0.872
18. H3255  0.885
19. LOU-NH91  0.886
20. NCI-H322M  0.901
21. EBC-1  0.91
22. COR-L23  0.911
23. 201T  0.958
24. Calu-6  0.997
25. LXF-289  0.997
26. LCLC-103H  1.02
27. BEN  1.04
28. COR-L 105  1.04
29. NCI-H1299  1.04
30. EPLC-272H  1.09
31. A-427  1.15
32. HARA  1.18
33. EKVX  1.19
34. NCI-H1563  1.19

Same assay, conditions: first compound 1 µM

In order of rising relative viability:
1. HCC-78  0.574
2. A549  0.642
3. HCC-44  0.691
4. ABC-1  0.723
5. HCC-366  0.769
6. CAL-12T  0.832
7. EBC-1  0.939
8. EKVX  0.941
9. HARA  0.941
10. H3255  0.957
11. 201T  0.96
12. COR-L 105  0.984
13. Calu-6  1
14. HCC-15  1
15. A-427  1.06
16. COR-L23  1.06
17. BEN  1.07
18. EPLC-272H  1.21
